Patent US20170073690A1, “ANTAGONISTS OF SLC38A9 AND THEIR USE IN THERAPY” (CEMM - Forschungzentrum Fuer Molekulare Medizin GMBH, priority 2014, published 2017)

What was measured:
[1] = target: T1, recombinant human SLC38A9 (Homo sapiens, UniProt Q8NBW4); experiment: inhibition of [3H]-glutamine uptake in SLC38A9 proteoliposomes; type: biochemical; details: for competition for glutamine transport (inhibition of [3H]-glutamine uptake): added together with 10 μM [3H]-glutamine, transport at 60 min, MeAIB 1 mM, FIG. 3D, FIG. 10B; for transport capacity of SLC38A9 for amino acids (transport preference): inferred from binding preference, FIG. 3d; for binding capacity of SLC38A9 for amino acids (binding preference): ranking read from FIG. 3d
T1 construct: made in house; host or cells: E. coli Lemo21(DE3)pLysS
T1 sequence (Q8NBW4 1-561): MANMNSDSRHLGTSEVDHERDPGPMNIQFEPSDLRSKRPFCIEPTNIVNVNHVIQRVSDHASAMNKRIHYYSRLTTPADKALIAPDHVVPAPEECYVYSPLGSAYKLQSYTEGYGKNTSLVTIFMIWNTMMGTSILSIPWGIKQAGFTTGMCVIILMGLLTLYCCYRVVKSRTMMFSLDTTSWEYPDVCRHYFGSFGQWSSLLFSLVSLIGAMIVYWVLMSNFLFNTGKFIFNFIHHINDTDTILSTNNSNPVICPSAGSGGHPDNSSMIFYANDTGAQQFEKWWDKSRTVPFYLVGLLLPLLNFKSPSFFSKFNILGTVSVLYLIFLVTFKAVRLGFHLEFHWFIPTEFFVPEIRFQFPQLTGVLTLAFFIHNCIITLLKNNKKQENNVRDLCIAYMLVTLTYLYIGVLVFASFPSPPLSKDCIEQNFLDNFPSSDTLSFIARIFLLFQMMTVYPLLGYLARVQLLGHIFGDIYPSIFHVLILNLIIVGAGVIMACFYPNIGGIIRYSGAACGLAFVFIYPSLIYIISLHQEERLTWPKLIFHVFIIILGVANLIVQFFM
Method: (§1) a, Orientation of SLC38A9 in proteoliposomes. After purification on Ni-chelating chromatography His-SLC38A9 was incubated overnight at 37° C. in absence or in presence of 1 U thrombin. Immunoblot using anti-His or anti-SLC38A9 antibody. b, Proteoliposomes reconstituted with SLC38A9 were centrifuged, resuspended in isosmotic buffer, incubated overnight at 37° C. with 1 U thrombin, solubilized with SDS Immunoblot using anti-His or anti-SLC38A9 antibody. c, Time course of glutamine uptake by SLC38A9 in proteoliposomes reconstituted with purified SLC38A9 or with control empty vector protein. The uptake of 10 μM [^3H]-glutamine was measured at different time intervals. Transport was stopped as described in Materials and Methods. Values represent means of specific transport ±s.d. from 8 different experiments. Significance was estimated by Student's t test (*P<0.01 or **P<0.001). d, Inhibition of the [^3H]-glutamine uptake in proteoliposomes. The indicated amino acids were added together with 10 μM [^3H]-glutamine Transport was measured at 60 min Values represent means of percent residual activity with respect to control (without added inhibitor) ±s.d. from 3 independent experiments. Significance was estimated by Student's t test (*P<0.01 or **P<0.001). e, Time course of glutamine efflux from proteoliposomes reconstituted with purified SLC38A9. Proteoliposomes were incubated with external 10 μM [^3H]-glutamine After 120 min the residual external radioactivity was removed by gel-filtration and the time course of [^3H]-glutamine efflux was measured as for the uptake (see FIG. 3 c). Values represent means of specific transport ±s.d. from 3 different experiments. f and g. HEK293T cells were transfected with the indicated tagged RAGA (0 or RAGB (g) and RAGC constructs or empty vector (−). Anti-HA immunoprecipitates and cell extracts were treated with PNGase and analysed by immunoblot with the indicated antibodies. Mutations are the following: RAGA: Q66L and T21N; RAGB: Q99L and T54N; RAGC: S75N and Q120N
a, Purification of SLC38A9. Lanes represent empty vector control and SLC38A9 expressed in E. coli and purified on Ni-chelating chromatography Immunoblot of the same fractions using anti-His antibody or anti-SLC38A9 are shown. b, Inhibition of the [^3H]-glutamine uptake in proteoliposomes. 1 mM MeAIB (α-(methylamino)isobutyric acid) was added together with 10 μM [^3H]-glutamine Transport was measured at 60 min. Values represent means of percent residual activity with respect to control (without added inhibitor) ±s.d. from 3 independent experiments. Significance was estimated by Student's t test (*P<0.01 or **P<0.001). c, Uptake of the indicated [3H]-labelled amino acids (10 μM) by SLC38A9 in proteoliposomes measured at 60 min. Values represent means of percent in respect to glutamine transport measured in the same experiment ±s.d. from three independent experiments. Significance was estimated by Student's t test (*P<0.01 or **P<0.001). d, Time course of glutamine uptake by SLC38A9 in proteoliposomes reconstituted with the purified protein fraction. The uptake of 10 μM [^3H]-glutamine was measured at different time intervals, in the presence of the indicated intraliposomal sodium concentrations. Transport was stopped as described in Materials and Methods and calculated by subtracting the radioactivity associated to proteoliposomes reconstituted with the empty vector fraction. Values represent means of specific transport ±s.d. from 3 different experiments. e, Effect of pH on the reconstituted SLC38A9. Reconstitution was performed as described in Materials and Methods except that 20 mM Hepes/Tris at the indicated pH was used. Transport was started by adding 10 μM [^3H]-glutamine in 20 mM Hepes/Tris buffer at the indicated pH to proteoliposomes and stopped at 30 min. Results are means of specific transport rate ±s.d. from 3 different experiments f-g HEK293T cells were starved in medium without amino acids and serum for the indicated times. […]

[2] = target: T1, recombinant human SLC38A9; experiment: uptake and efflux of [3H]-labelled amino acids by SLC38A9 in proteoliposomes; type: biochemical; details: for direct transport of [3H]-labelled amino acid by SLC38A9: 10 μM labelled amino acid, 60 min, relative to glutamine transport, FIG. 10C
Method: as §1, with “Values represent means of specific transport ±s.d. from 3 different experiments. f and g.” left out
a, Purification of SLC38A9. […] 1 mM MeAIB (α-(methylamino)isobutyric acid) was added together with 10 μM [^3H]-glutamine Transport was measured at 60 min. […] Significance was estimated by Student's t test (*P<0.01 or **P<0.001). c, Uptake of the indicated [3H]-labelled amino acids (10 μM) by SLC38A9 in proteoliposomes measured at 60 min. Values represent means of percent in respect to glutamine transport measured in the same experiment ±s.d. from three independent experiments. […] The uptake of 10 μM [^3H]-glutamine was measured at different time intervals, in the presence of the indicated intraliposomal sodium concentrations. Transport was stopped as described in Materials and Methods and calculated by subtracting the radioactivity associated to proteoliposomes reconstituted with the empty vector fraction. […]

mTORC1 [3] = experiment: cycloheximide-induced mTORC1 activation in HEK293T (immunoblot); type: cell-based, human; details: shRNA, starved 50 min, cycloheximide 25 μg/ml 10 or 20 min, FIG. 4B
Method: After 72 h, cells were treated as in a.d, HeLa were transfected with the indicated siRNA. […] Cell lysates were analysed by immunoblot with antibodies against phosphorylated threonine 389 S6 kinase, phosphorylated S6 and total S6 kinase e, Model of Sentor/SLC38A9 as part of the lysosomal amino acid-sensing machinery
(§2) […]. HEK293T cells were co-transfected with packaging plasmids and the shRNA-encoding plasmids. Cells were washed 16 h after transfection. Virus-containing supernatants were collected 24 h after washing, filtered and used for infection. After infection, HEK293T cells were selected with puromycin (4 μg/ml). For siRNA-mediated knockdown, HEK293T cells were transfected with HiPerfect (Qiagen) with 60 nM of siRNA pool. After 72 h cells were subjected to amino acid stimulation as described. ON-TARGETplus SMARTpool against SLC38A9 (L-007337-02-0005, Target sequences: […] (SEQ ID NO: 77), […] (SEQ ID NO: 78), […] (SEQ ID NO: 79), […] (SEQ ID NO: 80)), LAMTOR1 (L-020916-02-0010, Target sequences: […] (SEQ ID NO: 81), […] (SEQ ID NO: 82), […] (SEQ ID NO: 83), […] (SEQ ID NO: 84)) and Non-targeting pool (D-001810-10-05) were from ThermoScientific.
HEK293T cells were washed with PBS and incubated in amino acid-free RPMI for 50 min Cell were then stimulated for 10 or 20 min by the addition of RPMI containing a two time concentrated solution of amino acids. […]

HEK293T cells [4] = experiment: cell size measurement (nucleus diameter, automated microscopy); type: cell-based, human; details: shRNA knockdown vs shGFP, nucleus diameter as proxy, FIG. 5C
Method: (§3) a, Table of SLCs belonging to amino acid transporter families robustly expressed in HEK293 and K562 cells as monitored by RNAseq. SLC members of amino acid transporter-containing families^16 and expressed (FPKM>0.5) in both cell lines were ranked according to their expression level. […] Sparse and interphase cells were selected using image analysis and machine learning, and nucleus diameter (μm) was used as robust proxy for cell size^33. […] 10^5 cells were seeded and counted every 24 h. Mean values ±s.d. from triplicates e. HEK293 Flp-In TREx cells inducibly expressing SLC38A9 were treated or not with doxycycline (Dox) for 24 h. Where indicated, cell lysates were treated with PNGase (1 hour, 37° C.) and analysed by immunoblot (IB)
Images were taken by automated microscopy using the PerkinElmer Operetta with 20× magnification in confocal mode. Images were analysed using CellProfiler (www at cellprofiler.org), CellClassifier (http at www.pelkmanslab.org/?page_id=63), Population Context measurement code (https at www.pelkmanslab.org/?page_id=1150) and custom Matlab code written specifically for this study. […] We used the typical nucleus diameter (i.e. the diameter of a circle with the same area as that measured for each nucleus) as a robust proxy for cell size^6. […]

mTORC1 [5] = experiment: amino acid-induced mTORC1 activation in HEK293T (immunoblot of phosphorylated S6 kinase, S6, ULK1); type: cell-based, human; details: lentivirus-encoded shRNA vs shGFP, starved 50 min, amino acids 10 or 20 min, FIG. 4A
Method: After 72 h, cells were treated as in a.d, HeLa were transfected with the indicated siRNA. After 72 h, cells were starved for 50 min in medium without amino acids and serum and then stimulated with amino acids and insulin (1 uM). Cell lysates were analysed by immunoblot with antibodies against phosphorylated threonine 389 S6 kinase, phosphorylated S6 and total S6 kinase e, Model of Sentor/SLC38A9 as part of the lysosomal amino acid-sensing machinery
as §2, with “ThermoScientific. […]” for “ThermoScientific.”

HEK293T cells [6] = experiment: cell proliferation measurement (cell counting every 24 h); type: cell-based, human; details: shRNA knockdown vs shGFP, FIG. 5D
Method: as §3

## CNC(C)(C)C(=O)O [MeAIB, α-(methylamino)isobutyric acid]
[1]
  competition for glutamine transport (inhibition of [3H]-glutamine uptake): had not effect

## NC(=O)C[C@H](N)C(=O)O [[3H]asparagine, asparagine]
[2]
  direct transport of [3H]-labelled amino acid by SLC38A9: competence

## C[C@H](N)C(=O)O [alanine]
[1]
  transport capacity of SLC38A9 for amino acids (transport preference): lowest transport capacity
  binding capacity of SLC38A9 for amino acids (binding preference): lowest binding capacity

## N=C(N)NCCC[C@H](N)C(=O)O [arginine]
[2]
  direct transport of [3H]-labelled amino acid by SLC38A9: competence
[1]
  competition for glutamine transport (inhibition of [3H]-glutamine uptake): low ability

## N[C@@H](CS)C(=O)O [cysteine]
[1]
  transport capacity of SLC38A9 for amino acids (transport preference): highest transport capacity
  binding capacity of SLC38A9 for amino acids (binding preference): highest binding capacity

## NC(=O)CC[C@H](N)C(=O)O [glutamine]
[2]; 10 μM glutamine, time course, proteoliposomes, 25° C., pH 6.5
  initial rate of glutamine transport (uptake): 0.42±0.10 nmol per mg of protein per minute
[2]; loaded with external 10 μM [3H]-glutamine for 120 min, FIG. 3E
  rate of [3H]-glutamine efflux from proteoliposomes: 1.7 ± 0.30 nmol/min/mg
[1]
  transport capacity of SLC38A9 for amino acids (transport preference): highest transport capacity
  binding capacity of SLC38A9 for amino acids (binding preference): highest binding capacity

## CCGGGCCUUGACAACAGUUCUAUAUCUCGAGAUAUAGAACUGUUGUCAAGGCUUUUUUG (chemistry not given here; listed as Homo sapiens) [shRNA, shRNA-encoding pLKO.1 targeting SLC38A9 (ThermoFisher), lentivirally delivered; targets nt 1931-1951 of human SLC38A9 mRNA]
mTORC1 [3]
  cycloheximide-induced mTORC1 activation: impaired
HEK293T cells [4]
  cell size: clear reduction
mTORC1 [5]
  amino acid-induced mTORC1 activation: strong reduction
HEK293T cells [6]
  ability of the targeted cells to proliferate: impairment
